# According to PubChem BioAssay (NCI):
#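 Exposure lasted 48 hours, with cells grown in 96-well plates and compounds tested at five concentrations. TGI is the concentration that stops growth completely.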
# Experiments:
# Assay in all cases: DTP human tumour cell line panel, 48 h
# 786-0 renal = system: 786-0 renal
# M14 melanoma = system: M14 melanoma
# CAKI-1 renal = system: CAKI-1 renal
# HOP-18 NSCLC = system: HOP-18 NSCLC
# TK-10 renal = system: TK-10 renal
# SK-MEL-28 melanoma = system: SK-MEL-28 melanoma
# OVCAR-8 ovarian = system: OVCAR-8 ovarian
# UO-31 renal = system: UO-31 renal
# OVCAR-5 ovarian = system: OVCAR-5 ovarian
# SK-MEL-5 melanoma = system: SK-MEL-5 melanoma
# ACHN renal = system: ACHN renal
# DMS 114 small cell lung = system: DMS 114 small cell lung
# SF-539 CNS = system: SF-539 CNS
# RPMI-8226 leukemia = system: RPMI-8226 leukemia
# DLD-1 colon = system: DLD-1 colon
# M19-MEL melanoma = system: M19-MEL melanoma
# NCI-H23 lung = system: NCI-H23 lung
# SK-MEL-2 melanoma = system: SK-MEL-2 melanoma
# A498 renal = system: A498 renal
# DMS 273 small cell lung = system: DMS 273 small cell lung
# HCT-15 colon = system: HCT-15 colon
# HL-60(TB) leukemia = system: HL-60(TB) leukemia
# SF-268 CNS = system: SF-268 CNS
# SN12C renal = system: SN12C renal
# RXF 393 renal = system: RXF 393 renal
# NCI-H460 lung = system: NCI-H460 lung
# HCT-116 colon = system: HCT-116 colon
# U251 CNS = system: U251 CNS
# SF-295 CNS = system: SF-295 CNS
# SW-620 colon = system: SW-620 colon
# SNB-78 CNS = system: SNB-78 CNS
# LXFL 529 NSCLC = system: LXFL 529 NSCLC
# SNB-75 CNS = system: SNB-75 CNS
# SR leukemia = system: SR leukemia
# A549 NSCLC = system: A549 NSCLC
# MOLT-4 leukemia = system: MOLT-4 leukemia
# HCC-2998 colon = system: HCC-2998 colon
# MALME-3M melanoma = system: MALME-3M melanoma
# LOX IMVI melanoma = system: LOX IMVI melanoma
# KM20L2 colon = system: KM20L2 colon
# CCRF-CEM leukemia = system: CCRF-CEM leukemia
# KM12 colon = system: KM12 colon
# K-562 leukemia = system: K-562 leukemia
# NCI-H522 lung = system: NCI-H522 lung
# UACC-257 melanoma = system: UACC-257 melanoma
# UACC-62 melanoma = system: UACC-62 melanoma
# EKVX NSCLC = system: EKVX NSCLC
# OVCAR-4 ovarian = system: OVCAR-4 ovarian
# NCI-H226 lung = system: NCI-H226 lung
# XF 498 CNS = system: XF 498 CNS
# HT29 colon = system: HT29 colon
# OVCAR-3 ovarian = system: OVCAR-3 ovarian
# HOP-92 NSCLC = system: HOP-92 NSCLC
# SNB-19 CNS = system: SNB-19 CNS
# RXF-631 renal = system: RXF-631 renal
# HOP-62 NSCLC = system: HOP-62 NSCLC
# COLO 205 colon = system: COLO 205 colon
# IGROV1 ovarian = system: IGROV1 ovarian
structure (smiles),measurement,setting,value
Cn1c(=O)c2nc(-c3ccc(Cl)cc3)oc2n(C)c1=O,TGI,786-0 renal,> 100 µM
same,TGI,M14 melanoma,> 100 µM
same,TGI,CAKI-1 renal,> 100 µM
same,TGI,HOP-18 NSCLC,> 100 µM
same,TGI,TK-10 renal,> 100 µM
same,TGI,SK-MEL-28 melanoma,> 100 µM
same,TGI,OVCAR-8 ovarian,> 100 µM
same,TGI,UO-31 renal,> 100 µM
same,TGI,OVCAR-5 ovarian,> 100 µM
same,TGI,SK-MEL-5 melanoma,> 100 µM
same,TGI,ACHN renal,> 100 µM
same,TGI,DMS 114 small cell lung,> 100 µM
same,TGI,SF-539 CNS,> 100 µM
same,TGI,RPMI-8226 leukemia,> 100 µM
same,TGI,DLD-1 colon,> 100 µM
same,TGI,M19-MEL melanoma,> 100 µM
same,TGI,NCI-H23 lung,> 100 µM
same,TGI,SK-MEL-2 melanoma,> 100 µM
same,TGI,A498 renal,> 100 µM
same,TGI,DMS 273 small cell lung,> 100 µM
same,TGI,HCT-15 colon,> 100 µM
same,TGI,HL-60(TB) leukemia,> 100 µM
same,TGI,SF-268 CNS,> 100 µM
same,TGI,SN12C renal,> 100 µM
same,TGI,RXF 393 renal,> 100 µM
same,TGI,NCI-H460 lung,> 100 µM
same,TGI,HCT-116 colon,> 100 µM
same,TGI,U251 CNS,> 100 µM
same,TGI,SF-295 CNS,> 100 µM
same,TGI,SW-620 colon,> 100 µM
same,TGI,SNB-78 CNS,> 100 µM
same,TGI,LXFL 529 NSCLC,> 100 µM
same,TGI,SNB-75 CNS,> 100 µM
same,TGI,SR leukemia,> 100 µM
same,TGI,A549 NSCLC,> 100 µM
same,TGI,MOLT-4 leukemia,> 100 µM
same,TGI,HCC-2998 colon,> 100 µM
same,TGI,MALME-3M melanoma,> 100 µM
same,TGI,LOX IMVI melanoma,> 100 µM
same,TGI,KM20L2 colon,> 100 µM
same,TGI,CCRF-CEM leukemia,> 100 µM
same,TGI,KM12 colon,> 100 µM
same,TGI,K-562 leukemia,> 100 µM
same,TGI,NCI-H522 lung,> 100 µM
same,TGI,UACC-257 melanoma,> 100 µM
same,TGI,UACC-62 melanoma,> 100 µM
same,TGI,EKVX NSCLC,> 100 µM
same,TGI,OVCAR-4 ovarian,> 100 µM
same,TGI,NCI-H226 lung,> 100 µM
same,TGI,XF 498 CNS,> 100 µM
same,TGI,HT29 colon,> 100 µM
same,TGI,OVCAR-3 ovarian,> 100 µM
same,TGI,HOP-92 NSCLC,> 100 µM
same,TGI,SNB-19 CNS,> 100 µM
CSc1n[n+]2c(s1)SCCC2,TGI,RXF-631 renal,> 100 µM
same,TGI,786-0 renal,> 100 µM
same,TGI,M14 melanoma,> 100 µM
same,TGI,CAKI-1 renal,> 100 µM
same,TGI,HOP-18 NSCLC,> 100 µM
same,TGI,TK-10 renal,> 100 µM
same,TGI,SK-MEL-28 melanoma,> 100 µM
same,TGI,OVCAR-8 ovarian,> 100 µM
same,TGI,UO-31 renal,> 100 µM
same,TGI,OVCAR-5 ovarian,> 100 µM
same,TGI,SK-MEL-5 melanoma,> 100 µM
same,TGI,ACHN renal,> 100 µM
same,TGI,DMS 114 small cell lung,> 100 µM
same,TGI,SF-539 CNS,> 100 µM
same,TGI,DLD-1 colon,> 100 µM
same,TGI,M19-MEL melanoma,> 100 µM
same,TGI,NCI-H23 lung,> 100 µM
same,TGI,DMS 273 small cell lung,> 100 µM
same,TGI,HL-60(TB) leukemia,> 100 µM
same,TGI,SF-268 CNS,> 100 µM
same,TGI,SN12C renal,> 100 µM
same,TGI,HOP-62 NSCLC,> 100 µM
same,TGI,RXF 393 renal,> 100 µM
same,TGI,NCI-H460 lung,> 100 µM
same,TGI,HCT-116 colon,> 100 µM
same,TGI,COLO 205 colon,48.3 µM
same,TGI,U251 CNS,> 100 µM
same,TGI,SF-295 CNS,> 100 µM
same,TGI,SW-620 colon,> 100 µM
same,TGI,SNB-78 CNS,> 100 µM
same,TGI,LXFL 529 NSCLC,> 100 µM
same,TGI,SNB-75 CNS,> 100 µM
same,TGI,SR leukemia,> 100 µM
same,TGI,IGROV1 ovarian,> 100 µM
same,TGI,A549 NSCLC,92.3 µM
same,TGI,MOLT-4 leukemia,> 100 µM
same,TGI,HCC-2998 colon,> 100 µM
same,TGI,MALME-3M melanoma,> 100 µM
same,TGI,LOX IMVI melanoma,> 100 µM
same,TGI,CCRF-CEM leukemia,> 100 µM
same,TGI,KM12 colon,> 100 µM
same,TGI,K-562 leukemia,> 100 µM
same,TGI,NCI-H522 lung,> 100 µM
same,TGI,UACC-257 melanoma,> 100 µM
same,TGI,UACC-62 melanoma,> 100 µM
same,TGI,OVCAR-4 ovarian,> 100 µM
same,TGI,XF 498 CNS,> 100 µM
same,TGI,HT29 colon,> 100 µM
same,TGI,OVCAR-3 ovarian,> 100 µM
same,TGI,HOP-92 NSCLC,> 100 µM
same,TGI,SNB-19 CNS,> 100 µM
